The text below walks through data of US10696693B2, “Fused imidazole derivatives as TGF-beta inhibitors” (Rigel Pharmaceuticals, Inc., priority 2014, dated 2020).

Like-named read-outs stand apart in the source and are kept apart here.

One assay concerns TGF-β. Put plainly: AlphaScreen SureFire p-SMAD3 (Ser423/425) assay, TGF-β-stimulated cells. Type of assay: cell-based. The note with it: Mus musculus. In a few lines: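 The p-SMAD-3 (Ser423/425) SureFire assay measured phosphorylation of endogenous SMAD-3 in cell lysates. Cells were plated overnight in collagen-coated plates, exposed to three-fold serially diluted compounds for about 10 minutes, then stimulated with TGFβ. Lysates (5 μL) received acceptor bead mix for 2 hours, then donor beads for 1½ hours before AlphaScreen reading.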

In another assay the test system is GDF8. Description: AlphaScreen SureFire p-SMAD3 (Ser423/425) assay, GDF8-stimulated cells. It counts as cell-based. The note with it: Mus musculus. In a few lines: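 Lysate (5 μL) went into 384-well shallow plates with 5 μL of Reaction Buffer, Activation Buffer and AlphaScreen Acceptor bead mix. Plates were sealed, kept dark and shaken for 2 hours at room temperature. Donor beads in dilution buffer (2 μL) were added for another 1½ hours, and p-SMAD3 signal was read on a Synergy-4 or Enspire reader.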
On the technique in general: Bead proximity is the source of the signal in Alpha formats.

[1] abbreviates: p-SMAD3 (Ser423/425) AlphaScreen in cell lysate, MPC-11, TGF-β stimulation, read-out: TGF-β: inhibition of TGF-β signaling, TGF-β pSMAD (MPC-11).
[2] abbreviates: MPC-11, p-SMAD3 (Ser423/425) AlphaScreen in cell lysate, MPC11, GDF8 stimulation, read-out: GDF8: inhibition of GDF8 signaling, GDF pSMAD (MPC11).
Where [3] appears, read: MPC-11, read-out: TGF-β: inhibition of TGF-β signaling, TGF-β pSMAD (MPC-11), p-SMAD3 (Ser423/425) AlphaScreen in cell lysate, TGF-β stimulation.
The mark [4] stands for this setting: MPC-11, read-out: GDF8: inhibition of GDF8 signaling, GDF pSMAD (MPC11), p-SMAD3 (Ser423/425) AlphaScreen in cell lysate, GDF8 stimulation.

On to `Nc1ncnc2ccc(-c3c(-c4cc(F)cc(F)c4F)nc4n3CCC4)cc12` [Compound 344, 6-(2-(2,3,5-trifluorophenyl)-6,7-dihydro-5H-pyrrolo[1,2-a]imidazol-3-yl)quinazolin-4-amine], for which the IC50 in the assay with TGF-β (setting [1]) and in the assay on GDF8 (setting [2]) was 0.1 to 1 µM throughout.
`Clc1cccc(-c2nc3n(c2-c2ccc4ncsc4c2)CCC3)c1` [Compound 191, 6-(2-(3-chlorophenyl)-6,7-dihydro-5H-pyrrolo[1,2-a]imidazol-3-yl)benzo[d]thiazole]: the IC50 is 0.1 to 1 µM in the assay on TGF-β (setting [3]) and < 0.05 µM in the assay on GDF8 (setting [4]).
Regarding `Cc1cc(-c2nc3n(c2-c2ccc4ncnn4c2)CCC3)cc(C)c1Cl` [Compound 24, 6-(2-(4-chloro-3,5-dimethylphenyl)-6,7-dihydro-5H-pyrrolo[1,2-a]imidazol-3-yl)-[1,2,4]triazolo[1,5-a]pyridine], the IC50 with TGF-β (setting [1]) and with GDF8 (setting [2]) was > 1 µM in each case.
On to `Cc1c(F)ccc(-c2nc3n(c2-c2ccc4[nH]ncc4c2)CCC3)c1Cl` [Compound 312, 5-(2-(2-chloro-4-fluoro-3-methylphenyl)-6,7-dihydro-5H-pyrrolo[1,2-a]imidazol-3-yl)-1H-indazole], for which the IC50 in the assay on TGF-β (setting [3]) and in the assay on GDF8 (setting [4]) was > 1 µM throughout.
With `Cc1cccc(-c2nc3n(c2-c2ccc4nccn4c2)CCC3)c1` [Compound 1, 6-(2-(m-tolyl)-6,7-dihydro-5H-pyrrolo[1,2-a]imidazol-3-yl)imidazo[1,2-c]pyridine], the IC50 with TGF-β (setting [1]) was 0.1 to 1 µM; in the assay on GDF8 (setting [2]), 0.05 to 0.1 µM.
Turning to `Cc1c(F)ccc(-c2nc3n(c2-c2ccc4[nH]ncc4c2)CCC3)c1F` [Compound 280, 5-(2-(2,4-difluoro-3-methylphenyl)-6,7-dihydro-5H-pyrrolo[1,2-a]imidazol-3-yl)-1H-indazole], the IC50 is 0.1 to 1 µM with TGF-β (setting [1]) and 0.05 to 0.1 µM in the assay with GDF8 (setting [2]).
With `Fc1cc(F)c(-c2nc3n(c2-c2ccc4nccn4c2)CCC3)cc1F` [Compound 12], the IC50 is 0.1 to 1 µM in the assay with TGF-β (setting [1]) and < 0.05 µM in the assay with GDF8 (setting [2]).
For the compound `Fc1cc(F)c(-c2nc3occn3c2-c2ccc3nccn3c2)cc1F` [Compound 148, 6-(2,4,5-trifluorophenyl)-5-(imidazo[1,2-a]pyridin-6-yl)imidazo[2,1-b]oxazole], the IC50 with TGF-β (setting [1]) is 0.05 to 0.1 µM; in the assay with GDF8 (setting [2]) it was < 0.05 µM.
`Cc1cc(F)c(F)cc1-c1nc2n(c1-c1ccc3nccn3c1)CCC2` [Compound 32]: the IC50 was > 1 µM in the assay with TGF-β (setting [1]) and 0.1 to 1 µM with GDF8 (setting [2]).
As for `COCCOc1cnc2ccc(-c3c(-c4cc(C)ccc4F)nc4n3CCC4)cc2n1` [Compound 358, 7-(2-(2-fluoro-5-methylphenyl)-6,7-dihydro-5H-pyrrolo[1,2-a]imidazol-3-yl)-2-(2-methoxyethoxy)quinoxaline], the IC50 in the assay with TGF-β (setting [3]) and with GDF8 (setting [4]) was 0.1 to 1 µM each time.
With `O=C(O)C1CCC2(CC1)Cc1nc(-c3ccc(F)cc3)c(-c3ccc4ncsc4c3)n1C2` (stereo not drawn) [Compound 332, 3′-(benzo[d]thiazol-6-yl)-2′-(4-fluorophenyl)-5′H,7′H-spiro[cyclohexane-1,6′-pyrrolo[1,2-a]imidazole]-4-carboxylic acid], the results for the IC50 with TGF-β (setting [3]) and in the assay on GDF8 (setting [4]) were > 1 µM and 0.1 to 1 µM, respectively.
With `Fc1ccc(-c2nc3n(c2-c2ccc4ncsc4c2)CCC3)cc1` [Compound 174, 6-(2-(4-fluorophenyl)-6,7-dihydro-5H-pyrrolo[1,2-a]imidazol-3-yl)benzo[d]thiazole], the IC50 fell in the range of 0.1 to 1 µM in the assay on TGF-β (setting [3]) and 0.05 to 0.1 µM in the assay with GDF8 (setting [4]).
With `c1ccc(-c2nc3n(c2-c2ccc4nccnc4c2)CCC3)nc1` [Compound 368, 6-(2-(pyridin-2-yl)-6,7-dihydro-5H-pyrrolo[1,2-a]imidazol-3-yl)quinoxaline], the IC50 in the assay on TGF-β (setting [1]) and with GDF8 (setting [2]) was 0.05 to 0.1 µM in each case.
On to `Fc1ccc(-c2nc3n(c2-c2ccc4ncnn4c2)CCC3)cc1Cl` [Compound 36, 6-(2-(3-chloro-4-fluorophenyl)-6,7-dihydro-5H-pyrrolo[1,2-a]imidazol-3-yl)-[1,2,4]triazolo[1,5-a]pyridine], for which the values for the IC50 in the assay on TGF-β (setting [1]) and in the assay on GDF8 (setting [2]) were 0.1 to 1 µM and < 0.05 µM, respectively.
`OCC1CCC2(CC1)Cc1nc(-c3ccc(F)cc3)c(-c3ccc4ncsc4c3)n1C2` (stereo not drawn) [Compound 335, (3′-(benzo[d]thiazol-6-yl)-2′-(4-fluorophenyl)-5′H,7′H-spiro[cyclohexane-1,6′-pyrrolo[1,2-a]imidazol]-4-yl)methanol]: the IC50 in the assay on TGF-β (setting [3]) and in the assay with GDF8 (setting [4]) was > 1 µM throughout.
On to `Fc1ccccc1-c1nc2n(c1-c1ccc3[nH]ncc3c1)CCC2` [Compound 197, 5-(2-(2-fluorophenyl)-6,7-dihydro-5H-pyrrolo[1,2-a]imidazol-3-yl)-1H-indazole], for which the IC50 in the assay with TGF-β (setting [1]) is > 1 µM; in the assay with GDF8 (setting [2]), 0.1 to 1 µM.
`Cc1cccc(-c2nc3n(c2-c2ccc4cn[nH]c4c2)CCC3)c1` [Compound 169, 6-(2-(m-tolyl)-6,7-dihydro-5H-pyrrolo[1,2-a]imidazol-3-yl)-1H-indazole]: the IC50 in the assay on TGF-β (setting [1]) is 0.05 to 0.1 µM; in the assay with GDF8 (setting [2]) it was < 0.05 µM.
In the case of `CN(C)CC1CCC2(CC1)Cc1nc(-c3ccc(F)cc3)c(-c3ccc4ncnn4c3)n1C2` (stereo not drawn) [Compound 87, 1-(3′-([1,2,4]triazolo[1,5-a]pyridin-6-yl)-2′-(4-fluorophenyl)-5′H,7′H-spiro[cyclohexane-1,6′-pyrrolo[1,2-a]imidazol]-4-yl)-N,N-dimethylmethanamine], the IC50 in the assay on TGF-β (setting [1]) and in the assay on GDF8 (setting [2]) was > 1 µM in each case.
For `Cc1ccc(F)c(-c2nc3n(c2-c2ccc4ncccc4c2)CCC3)c1` [Compound 356, 6-(2-(2-fluoro-5-methylphenyl)-6,7-dihydro-5H-pyrrolo[1,2-a]imidazol-3-yl)quinoline], the IC50 in the assay on TGF-β (setting [1]) lay within 0.1 to 1 µM; in the assay with GDF8 (setting [2]), 0.05 to 0.1 µM.
As to `Fc1cccc(-c2nc3n(c2-c2ccc4[nH]ncc4c2)CCC3)c1` [Compound 193, 5-(2-(3-fluorophenyl)-6,7-dihydro-5H-pyrrolo[1,2-a]imidazol-3-yl)-1H-indazole], the IC50 in the assay with TGF-β (setting [3]) was > 1 µM; in the assay with GDF8 (setting [4]), 0.1 to 1 µM.
For the compound `Fc1ccc(-c2nc3n(c2-c2ccc4nccnc4c2)CCC3)c(F)c1` [Compound 204, 6-(2-(2,4-difluorophenyl)-6,7-dihydro-5H-pyrrolo[1,2-a]imidazol-3-yl)quinoxaline], the IC50 in the assay with TGF-β (setting [1]) and with GDF8 (setting [2]) was 0.1 to 1 µM each time.
As to `Clc1ccc(Cl)c(-c2nc3n(c2-c2ccc4nccn4c2)CCC3)c1` [Compound 93, 6-(2-(2,5-dichlorophenyl)-6,7-dihydro-5H-pyrrolo[1,2-a]imidazol-3-yl)imidazo[1,2-a]pyridine], the figures for the IC50 with TGF-β (setting [3]) and in the assay on GDF8 (setting [4]) were 0.05 to 0.1 µM and < 0.05 µM, respectively.
Consider `Fc1cc(F)c(-c2nc3n(c2-c2ccc4ncsc4c2)CCC3)cc1F` [Compound 218, 6-(2-(2,4,5-trifluorophenyl)-6,7-dihydro-5H-pyrrolo[1,2-a]imidazol-3-yl)benzo[d]thiazole], for which the figures for the IC50 with TGF-β (setting [1]) and in the assay with GDF8 (setting [2]) were 0.05 to 0.1 µM and < 0.05 µM, respectively.
Consider `Fc1cc(Cl)c(-c2nc3n(c2-c2ccc4[nH]ncc4c2)CCC3)cc1F` [Compound 288, 5-(2-(2-chloro-4,5-difluorophenyl)-6,7-dihydro-5H-pyrrolo[1,2-a]imidazol-3-yl)-1H-indazole], for which the IC50 is > 1 µM in the assay with TGF-β (setting [3]) and 0.1 to 1 µM in the assay with GDF8 (setting [4]).
For `CN(C)CCOc1cnc2ccc(-c3c(-c4cc(F)c(F)cc4F)nc4n3CCC4)cc2n1` [Compound 362, N,N-dimethyl-2-((7-(2-(2,4,5-trifluorophenyl)-6,7-dihydro-5H-pyrrolo[1,2-a]imidazol-3-yl)quinoxalin-2-yl)oxy)ethan-1-amine], the IC50 with TGF-β (setting [3]) and in the assay with GDF8 (setting [4]) was 0.1 to 1 µM each time.
Regarding `Fc1cc(F)c(-c2nc3occn3c2-c2ccc3cn[nH]c3c2)cc1F` [Compound 147, 6-(2,4,5-trifluorophenyl)-5-(1H-indazol-6-yl)imidazo[2,1-b]oxazole], the values for the IC50 with TGF-β (setting [1]) and in the assay with GDF8 (setting [2]) were 0.05 to 0.1 µM and < 0.05 µM, respectively.
With `Fc1ccc(-c2nc3occn3c2-c2ccc3nccn3c2)cc1` [Compound 129, 6-(4-fluorophenyl)-5-(imidazo[1,2-a]pyridin-6-yl)imidazo[2,1-b]oxazole], the IC50 in the assay on TGF-β (setting [1]) was 0.05 to 0.1 µM; in the assay on GDF8 (setting [2]) it was < 0.05 µM.
With `Fc1cccc(-c2nc3n(c2-c2ccc4cn[nH]c4c2)CCC3)c1` [Compound 194, 6-(2-(3-fluorophenyl)-6,7-dihydro-5H-pyrrolo[1,2-a]imidazol-3-yl)-1H-indazole], the results for the IC50 in the assay with TGF-β (setting [3]) and in the assay on GDF8 (setting [4]) were > 1 µM and 0.1 to 1 µM, respectively.
Consider `Fc1cc(F)c(F)c(-c2nc3n(c2-c2ccc4ncc(-n5ccnc5)nc4c2)CCC3)c1` [Compound 359, 2-(1H-imidazol-1-yl)-7-(2-(2,3,5-trifluorophenyl)-6,7-dihydro-5H-pyrrolo[1,2-a]imidazol-3-yl)quinoxaline], for which the IC50 was in the range of 0.1 to 1 µM with TGF-β (setting [3]) and 0.05 to 0.1 µM in the assay with GDF8 (setting [4]).
For the compound `Fc1ccc(-c2nc3n(c2-c2ccc4nccnc4c2)CCC3)cc1Cl` [Compound 266, 6-(2-(3-chloro-4-fluoropheny)-6,7-dihydro-5H-pyrrolo[1,2-a]imidazol-3-yl)quinoxaline], the IC50 is 0.1 to 1 µM in the assay with TGF-β (setting [1]) and 0.05 to 0.1 µM in the assay with GDF8 (setting [2]).
